# Measurements published in ChEMBL document CHEMBL1201862, “PubChem BioAssay data set” (2004).
#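 Cultured in 96-well plates, cells were exposed to test compound for 48 hours across five concentrations. GI50 is the concentration that inhibits growth by half.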 Active and inactive are the calls of the source. Rule as the data show it: active = GI50 up to about 1.1 µM and inactive = higher.
# Key:
# Assay in all cases: growth of human tumour cells (NCI), 48 h
# [1] = test system: 786-0
# [2] = test system: A498
# [3] = test system: A549
# [4] = test system: ACHN
# [5] = test system: BT-549
# [6] = test system: CAKI-1
# [7] = test system: CCRF-CEM
# [8] = test system: COLO 205
# [9] = test system: DU-145
# [10] = test system: EKVX
# [11] = test system: HCC 2998
# [12] = test system: HCT-116
# [13] = test system: HCT-15
# [14] = test system: HOP-62
# [15] = test system: HT-29
# [16] = test system: Hs-578T
# [17] = test system: K562
# [18] = test system: KM12
# [19] = test system: LOX IMVI
# [20] = test system: M14
# [21] = test system: MCF7
# [22] = test system: MDA-MB-231
# [23] = test system: MDA-MB-435
# [24] = test system: MDA-N
# [25] = test system: MOLT-4
# [26] = test system: Malme-3M
# [27] = test system: NCI-H226
# [28] = test system: NCI-H23
# [29] = test system: NCI-H460
# [30] = test system: NCI-H522
# [31] = test system: OVCAR-3
# [32] = test system: OVCAR-4
# [33] = test system: OVCAR-5
# [34] = test system: OVCAR-8
# [35] = test system: PC-3
# [36] = test system: RPMI-8226
# [37] = test system: SF-268
# [38] = test system: SF-295
# [39] = test system: SF-539
# [40] = test system: SK-MEL-28
# [41] = test system: SK-MEL-2
# [42] = test system: SK-MEL-5
# [43] = test system: SK-OV-3
# [44] = test system: SN12C
# [45] = test system: SNB-19
# [46] = test system: SNB-75
# [47] = test system: SR
# [48] = test system: SW-620
# [49] = test system: T47D
# [50] = test system: TK-10
# [51] = test system: U-251
# [52] = test system: UACC-257
# [53] = test system: UACC-62
# [54] = test system: HL-60
# [55] = test system: IGROV-1
# [56] = test system: NCI/ADR-RES
# [57] = test system: RXF 393
# [58] = test system: UO-31
smiles,measurement,setting,value
CN(CCC(=O)N1CC(CCl)c2ccc([N+](=O)[O-])cc21)CCC(=O)N1CC(CCl)c2ccc([N+](=O)[O-])cc21 (centres undefined),GI50,[1],10.9 µM (inactive)
same,GI50,[2],19.3 µM (inactive)
same,GI50,[3],36.6 µM (inactive)
same,GI50,[4],0.074 µM (active)
same,GI50,[5],23.6 µM (inactive)
same,GI50,[6],18.7 µM (inactive)
same,GI50,[7],15.9 µM (inactive)
same,GI50,[8],15.4 µM (inactive)
same,GI50,[9],31.5 µM (inactive)
same,GI50,[10],12.7 µM (inactive)
same,GI50,[11],5.79 µM (inactive)
same,GI50,[12],12.6 µM (inactive)
same,GI50,[13],13.2 µM
same,GI50,[14],33.7 µM (inactive)
same,GI50,[15],11.7 µM (inactive)
same,GI50,[16],2.85 µM (inactive)
same,GI50,[17],14.3 µM (inactive)
same,GI50,[18],4.72 µM (inactive)
same,GI50,[19],7.87 µM (inactive)
same,GI50,[20],10.1 µM (inactive)
same,GI50,[21],11.4 µM (inactive)
same,GI50,[22],16.7 µM (inactive)
same,GI50,[23],13.9 µM (inactive)
same,GI50,[24],15 µM (inactive)
same,GI50,[25],4.25 µM (inactive)
same,GI50,[26],10.1 µM (inactive)
same,GI50,[27],6.95 µM (inactive)
same,GI50,[28],14.7 µM (inactive)
same,GI50,[29],24.7 µM (inactive)
same,GI50,[30],6.53 µM (inactive)
same,GI50,[31],11.5 µM (inactive)
same,GI50,[32],42.7 µM (inactive)
same,GI50,[33],> 100 µM (inactive)
same,GI50,[34],14.3 µM (inactive)
same,GI50,[35],6.52 µM (inactive)
same,GI50,[36],3.96 µM (inactive)
same,GI50,[37],12.1 µM (inactive)
same,GI50,[38],13.7 µM (inactive)
same,GI50,[39],14.6 µM (inactive)
same,GI50,[40],15.5 µM (inactive)
same,GI50,[41],13.2 µM (inactive)
same,GI50,[42],12.3 µM (inactive)
same,GI50,[43],29.6 µM (inactive)
same,GI50,[44],19 µM (inactive)
same,GI50,[45],> 100 µM (inactive)
same,GI50,[46],2.56 µM (inactive)
same,GI50,[47],1.77 µM (inactive)
same,GI50,[48],15.6 µM (inactive)
same,GI50,[49],25.1 µM (inactive)
same,GI50,[50],10.4 µM (inactive)
same,GI50,[51],24.2 µM (inactive)
same,GI50,[52],9.2 µM (inactive)
same,GI50,[53],12.3 µM (inactive)
COC(=O)CN1C(=O)C2(C(=O)OC)OC1(c1ccc([N+](=O)[O-])cc1)C1C(=O)N(c3ccccc3)C(=O)C12 (centres undefined),GI50,[1],> 100 µM (inactive)
same,GI50,[2],> 100 µM (inactive)
same,GI50,[3],> 100 µM (inactive)
same,GI50,[4],> 100 µM (inactive)
same,GI50,[5],> 100 µM (inactive)
same,GI50,[6],> 100 µM (inactive)
same,GI50,[7],> 100 µM (inactive)
same,GI50,[8],> 100 µM (inactive)
same,GI50,[9],> 100 µM (inactive)
same,GI50,[10],> 100 µM (inactive)
same,GI50,[12],> 100 µM (inactive)
same,GI50,[13],> 100 µM
same,GI50,[54],> 100 µM (inactive)
same,GI50,[14],> 100 µM (inactive)
same,GI50,[15],> 100 µM (inactive)
same,GI50,[16],> 100 µM (inactive)
same,GI50,[55],> 100 µM (inactive)
same,GI50,[18],> 100 µM (inactive)
same,GI50,[19],> 100 µM (inactive)
same,GI50,[20],> 100 µM (inactive)
same,GI50,[22],> 100 µM (inactive)
same,GI50,[23],> 100 µM (inactive)
same,GI50,[24],> 100 µM (inactive)
same,GI50,[25],> 100 µM (inactive)
same,GI50,[26],> 100 µM (inactive)
same,GI50,[27],> 100 µM (inactive)
same,GI50,[28],> 100 µM (inactive)
same,GI50,[30],> 100 µM (inactive)
same,GI50,[56],> 100 µM (inactive)
same,GI50,[32],> 100 µM (inactive)
same,GI50,[33],> 100 µM (inactive)
same,GI50,[34],> 100 µM (inactive)
same,GI50,[35],> 100 µM (inactive)
same,GI50,[57],> 100 µM (inactive)
same,GI50,[37],> 100 µM (inactive)
same,GI50,[38],> 100 µM (inactive)
same,GI50,[39],> 100 µM (inactive)
same,GI50,[40],> 100 µM (inactive)
same,GI50,[41],> 100 µM (inactive)
same,GI50,[42],> 100 µM (inactive)
same,GI50,[43],> 100 µM (inactive)
same,GI50,[44],> 100 µM (inactive)
same,GI50,[45],> 100 µM (inactive)
same,GI50,[46],> 100 µM (inactive)
same,GI50,[48],> 100 µM (inactive)
same,GI50,[49],> 100 µM (inactive)
same,GI50,[50],> 100 µM (inactive)
same,GI50,[51],> 100 µM (inactive)
same,GI50,[52],> 100 µM (inactive)
same,GI50,[53],> 100 µM (inactive)
same,GI50,[58],> 100 µM (inactive)
